Measurements as given in article PMC2770896, “Inhibition of Neuraminidase Inhibitor-Resistant Influenza Virus by DAS181, a Novel Sialidase Fusion Protein” (PLoS ONE, 2009).
Where two headings read alike, the source gives them in different places.

Key:
[1] = tested on: Human renal cortical epithelial cells; assay: Primary cell cytotoxicity, MTS assay; type: cell-based; details: 24 hrs or 72 hrs exposure, DAS181 various concentrations, 0.2% thimerosol, 1 mM CdCl2
From the text: (§1) Primary cryopreserved human renal cells (Proximal Tubule Epethelial and Cortical Epethelial cells) were thawed, plated, and propagated according to Cambrex’s recommended protocol. Both renal cell lines were thawed and plated at a seeding density of 2500 cells/cm^2 with Renal Epethelial Basal Medium (REBM) supplemented with Cambrex REGM SingleQuots® (Cambrex CC-4127); which includes recombinant human epidermal growth factor, insulin, GA-1000, 0.5% Fetal Bovine Serum, hydrocortisone, transferrin, epinephrine, and triiodothyronine (T3). The cells were allowed to adhere and equilibrate for 24 hours at 37°C with 5% CO2. […] All the renal cells were further subcultured and seeded into 10 tissue culture-coated 24 well plates per cell line at a seeding density of 2.5x10^3 cells/cm^2. Once the cells reached approximately 70% confluency the 24 well plates were used in cytotoxicity experiments using the REBM supplemented with the REGM SingleQuots®.
(§2) On Day 0 the cell media supernatants were initially collected for baseline controls, before adding fresh media supplemented with either PBS, DAS181 (indicated concentrations), or thimerosal (0.2%) or CdCl^2 (1mM) to serve as positive controls for cytotoxicity. All treatment groups were done in triplicate. Treatments were left on for either 24 hrs or 72 hrs. Subsequently, for the 24 hr exposure conditions fresh media without test article was added to all the wells every 24 hours on days 1-3 (24-72 hours post-treatment); a subset of the wells were used for MTS assay each day. For the 72 hr exposure conditions the media was only changed at 72 hrs, immediately prior to MTS assay. Renal cell media interfered with Lactate Dehydrogenase (LDH) and Alkaline Phosphatase (ALP) assays so these were not performed.
(§3) At each endpoint (24, 48, or 72 hrs) the old media was first replaced with fresh warm media (500uL/well) and the samples were then tested for cell viability using the CellTiter 96® Aqueous Non-Radioactive Cell Proliferation Assay (MTS) kit (Promega, Madison, WI). […] 100μL of each sample was then added to a 96 well plate and read for absorbance at 490 nm. A 1:5 dilution of MTS solution in growth media alone was used as the background. For data analysis, background values were subtracted from all sample values. Values were then normalized using the vehicle control as 100%. Each sample was compared to the vehicle control, via ANOVA with Bonferroni post-test, to determine if there was a statistically significant change in cell viability.

[2] = tested on: Human renal proximal tubule cells; assay: Primary cell cytotoxicity, MTS assay; type: cell-based; details: 24 hrs or 72 hrs exposure, DAS181 various concentrations, 0.2% thimerosol, 1 mM CdCl2
From the text: as §1, §2, §3

A/Hawaii/21/07 = type: cell-based, IFV A (H1N1)
A/St.Louis/792/09 = type: cell-based, IFV A (H1N1)
A/St.Louis/758/09 = type: cell-based, IFV A (H1N1)
A/St.Louis/775/09 = type: cell-based, IFV A (H1N1)
[3] = biological target: NA enzymatic activity of A/Georgia/17/2006 WT (Influenza A virus (H1N1), UniProt A7UPL3); assay: Chemiluminescent neuraminidase activity inhibition (NI) assay; type: biochemical; details: for IC50: A/Georgia/17/2006 WT reference virus, mean of triplicate analysis; for R/S: A/Georgia/17/2006 WT, NI assay
Description: (§4) The chemiluminescent neuraminidase activity inhibition (NI) assay was conducted using a commercially available kit, NA-Star (Applied Biosystems, Foster City, CA) as previously described. Oseltamivir carboxylate and zanamivir were used at 10 half-log dilutions (0.03 to 1000 nM). Values shown represent mean of triplicate analysis.

[4] = biological target: NA enzymatic activity of A/St.Louis/792/09 (Influenza A virus, UniProt D0FH55); assay: as above; type: biochemical, IFV A (H1N1); details: for R/S: NI assay; for IC50: mean of triplicate analysis
Description: as §4

[5] = biological target: NA enzymatic activity of A/St.Louis/630/09 (Influenza A virus, UniProt D0FH48); assay: as above; type: biochemical, IFV A (H1N1); details: for R/S: NI assay; for IC50: mean of triplicate analysis
Description: as §4

[6] = biological target: NA enzymatic activity of A/St.Louis/690/09 (Influenza A virus, UniProt D0FH49); assay: as above; type: biochemical, IFV A (H1N1); details: for R/S: NI assay; for IC50: mean of triplicate analysis
Description: as §4

[7] = biological target: NA enzymatic activity of A/St.Louis/764/09 (Influenza A virus, UniProt D0FH52); assay: as above; type: biochemical, IFV A (H1N1); details: for R/S: NI assay; for IC50: mean of triplicate analysis
Description: as §4

[8] = biological target: NA enzymatic activity of A/St.Louis/539/09 (Influenza A virus, UniProt D0FH47); assay: as above; type: biochemical, IFV A (H1N1); details: for R/S: NI assay; for IC50: mean of triplicate analysis
Description: as §4

[9] = biological target: NA enzymatic activity of A/St.Louis/790/09 (Influenza A virus, UniProt D0FH54); assay: as above; type: biochemical, IFV A (H1N1); details: for R/S: NI assay; for IC50: mean of triplicate analysis
Description: as §4

[10] = biological target: NA enzymatic activity of A/St.Louis/746/09 (Influenza A virus, UniProt D0FH50); assay: as above; type: biochemical, IFV A (H1N1); details: for R/S: NI assay; for IC50: mean of triplicate analysis
Description: as §4

[11] = biological target: NA enzymatic activity of A/St.Louis/775/09 (Influenza A virus, UniProt D0FH53); assay: as above; type: biochemical, IFV A (H1N1); details: for R/S: NI assay; for IC50: mean of triplicate analysis
Description: as §4

[12] = biological target: NA enzymatic activity of A/Hawaii/21/2007 (Influenza A virus (H1N1), UniProt B1AGI9); assay: as above; type: biochemical, IFV A (H1N1); details: for R/S: A/Hawaii/21/2007, NI assay
Description: as §4

A/St.Louis/690/09 = type: cell-based, IFV A (H1N1)
A/St.Louis/764/09 = type: cell-based, IFV A (H1N1)
A/NewJersey/15/07 = type: cell-based, IFV A (H1N1)
A/St.Louis/790/09 = type: cell-based, IFV A (H1N1)
A/St.Louis/746/09 = type: cell-based, IFV A (H1N1)
A/HongKong/2765/04 = type: cell-based, IFV A (H1N1)
A/St.Louis/630/09 = type: cell-based, IFV A (H1N1)
A/HongKong/2637/04 = type: cell-based, IFV A (H1N1)
A/St.Louis/539/09 = type: cell-based, IFV A (H1N1)

[Cl][Cd][Cl] [CdCl2, cadmium chloride]
Cell viability (MTS) vs PBS [1]: significant reduction in cell viability | Cell viability (MTS) vs PBS [2]: significant reduction in cell viability

CCC(CC)O[C@@H]1C=C(C(=O)O)C[C@H](N)[C@H]1NC(C)=O [oseltamivir, oseltamivir carboxylate]
EC50 (A/Hawaii/21/07; read-out: EC50): > 285 µM | EC50 (A/St.Louis/792/09; read-out: EC50): > 400 µM | EC50 (A/St.Louis/758/09; read-out: EC50): > 400 µM | EC50 (A/St.Louis/775/09; read-out: EC50): > 320 µM | IC50 [3]: 0.00037 µM | R/S [3]: S | R/S [4]: R | IC50 [4]: 0.0915 µM | R/S [5]: R | IC50 [5]: 0.224 µM | R/S [6]: R | IC50 [6]: 0.178 µM | R/S [7]: R | IC50 [7]: 0.103 µM | R/S [8]: R | IC50 [8]: 0.0849 µM | R/S [9]: R | IC50 [9]: 0.0878 µM | R/S [10]: R | IC50 [10]: 0.0899 µM | R/S [11]: R | IC50 [11]: 0.0919 µM | R/S [12]: R | IC50 ([12]; A/Hawaii/21/2007 reference virus, mean of triplicate analysis): 0.11 µM | EC50 (A/St.Louis/690/09; read-out: EC50): > 400 µM | EC50 (A/St.Louis/764/09; read-out: EC50): > 400 µM | EC50 (A/NewJersey/15/07; read-out: EC50): > 400 µM | EC50 (A/St.Louis/790/09; read-out: EC50): > 304 µM | EC50 (A/St.Louis/746/09; read-out: EC50): > 400 µM | EC50 (A/HongKong/2765/04; read-out: EC50): 2.92 ± 1 µM | EC50 (A/St.Louis/630/09; read-out: EC50): > 400 µM | EC50 (A/HongKong/2637/04; read-out: EC50): 3.27 ± 1.32 µM | EC50 (A/St.Louis/539/09; read-out: EC50): > 400 µM

C[CH2][Hg][S]c1ccccc1C(=O)[O-].[Na+] [thimerosol]
Cell viability (MTS) vs PBS [1]: significant reduction in cell viability | Cell viability (MTS) vs PBS [2]: significant reduction in cell viability

CC(=O)N[C@H]1[C@H]([C@H](O)[C@H](O)CO)OC(C(=O)O)=C[C@@H]1N=C(N)N [zanamivir]
EC50 (A/Hawaii/21/07; read-out: EC50): 45 ± 22.5 µM | EC50 (A/Hawaii/21/07; read-out: EC50 Zanamivir): 45 ± 22.5 µM | EC50 (A/St.Louis/792/09; read-out: EC50): > 156 µM | EC50 (A/St.Louis/792/09; read-out: EC50 Zanamivir): > 156 µM | EC50 (A/St.Louis/758/09; read-out: EC50): 7.06 ± 2.84 µM | EC50 (A/St.Louis/758/09; read-out: EC50 Zanamivir): 7.06 ± 2.84 µM | EC50 (A/St.Louis/775/09; read-out: EC50): 1.2 ± 0.36 µM | EC50 (A/St.Louis/775/09; read-out: EC50 Zanamivir): 1.2 ± 0.36 µM | IC50 [3]: 0.00044 µM | R/S [3]: S | R/S [4]: S | IC50 [4]: 0.00028 µM | R/S [5]: S | IC50 [5]: 0.00048 µM | R/S [6]: S | IC50 [6]: 0.00044 µM | R/S [7]: S | IC50 [7]: 0.0003 µM | R/S [8]: S | IC50 [8]: 0.00028 µM | R/S [9]: S | IC50 [9]: 0.00029 µM | R/S [10]: S | IC50 [10]: 0.0003 µM | R/S [11]: S | IC50 [11]: 0.00033 µM | R/S [12]: S | EC50 (A/St.Louis/690/09; read-out: EC50): > 182 µM | EC50 (A/St.Louis/690/09; read-out: EC50 Zanamivir): > 182 µM | EC50 (A/St.Louis/764/09; read-out: EC50): > 273 µM | EC50 (A/St.Louis/764/09; read-out: EC50 Zanamivir): > 273 µM | EC50 (A/NewJersey/15/07; read-out: EC50): 7.02 ± 2.46 µM | EC50 (A/NewJersey/15/07; read-out: EC50 Zanamivir): 7.02 ± 2.46 µM | EC50 (A/St.Louis/790/09; read-out: EC50): 3.12 ± 1.83 µM | EC50 (A/St.Louis/790/09; read-out: EC50 Zanamivir): 3.12 ± 1.83 µM | EC50 (A/St.Louis/746/09; read-out: EC50): 1.96 ± 0.42 µM | EC50 (A/St.Louis/746/09; read-out: EC50 Zanamivir): 1.96 ± 0.42 µM | EC50 (A/HongKong/2765/04; read-out: EC50): 4.17 ± 0.53 µM | EC50 (A/HongKong/2765/04; read-out: EC50 Zanamivir): 4.17 ± 0.53 µM | EC50 (A/St.Louis/630/09; read-out: EC50): 62.1 ± 34.8 µM | EC50 (A/St.Louis/630/09; read-out: EC50 Zanamivir): 62.1 ± 34.8 µM | EC50 (A/HongKong/2637/04; read-out: EC50): 1.82 ± 0.46 µM | EC50 (A/HongKong/2637/04; read-out: EC50 Zanamivir): 1.82 ± 0.46 µM | EC50 (A/St.Louis/539/09; read-out: EC50): > 332 µM | EC50 (A/St.Louis/539/09; read-out: EC50 Zanamivir): > 332 µM
